Patent US10800791B2, “Triazole ACC inhibitors and uses thereof” (Gilead Apollo, LLC, priority 2015, dated 2020)
In brackets after ≈: the same amount, converted by molar mass. Read-outs that look alike come from different tables or passages of the source.

How the values were obtained:
C. krusei = test: Antifungal Activity Assay (broth microtiter MIC), C. krusei; assay type: cell-based, Candida krusei; conditions: Pichia kudriavzevii, ATCC6258, 48 h
Method in brief: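 MIC read by eye at 48 h, comparing challenged wells with the growth control. Yeasts grown overnight on Sabouraud dextrose agar at 35° C, suspended in RPMI 1640+MOPS and added at 2.5×10^3 CFU/mL final, following CLSI M27-A3.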

[1] = tested on: Collectotrichum graminicola (Cg); test: Growth inhibition assay of fungal pathogens, Cg; assay type: cell-based; conditions: 48 h
Method in brief: (§1)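 Inhibition percentages reflect 48 h OD600 and visual scores relative to a 2% DMSO control. Test concentrations were 50, 10, 2 ppm or 2, 0.4, 0.08 ppm final, applied to spores in 17% V8 medium.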

[2] = tested on: Phytophthora capsici (Pc); test: Growth inhibition assay of fungal pathogens, Pc; assay type: cell-based; conditions: 48 h
Method in brief: as §1

[3] = Table 3a, ATCC 6258, 3 replicates, MIC recorded at 48 h, read-out: MIC, C. krusei ATCC 6258
[4] = Table 3b (additional results), ATCC 6258, 3 replicates, MIC recorded at 48 h, read-out: MIC, C. krusei ATCC 6258
[5] = Collectotrichum graminicola, growth inhibition at 48 hours vs 2% DMSO control, read-out: Concentration at 90% Inhibition Cg
[6] = Collectotrichum graminicola, growth inhibition vs 2% DMSO control at 48 hours, read-out: Concentration at 90% Inhibition Cg
[7] = growth inhibition at 48 hours vs 2% DMSO control, read-out: Concentration at 90% Inhibition Pc
[8] = growth inhibition vs 2% DMSO control at 48 hours, read-out: Concentration at 90% Inhibition Pc
[9] = read-out: MIC, C. krusei ATCC 6258, Table 3a, 3 replicates, MIC recorded at 48 h
[10] = read-out: MIC, C. krusei ATCC 6258, Table 3b (additional results), 3 replicates, MIC recorded at 48 h
[11] = read-out: Concentration at 90% Inhibition Cg, Collectotrichum graminicola, growth inhibition at 48 hours vs 2% DMSO control
[12] = read-out: Concentration at 90% Inhibition Cg, Collectotrichum graminicola, growth inhibition vs 2% DMSO control at 48 hours
[13] = read-out: Concentration at 90% Inhibition Pc, Phytophthora capsici, growth inhibition at 48 hours vs 2% DMSO control
[14] = read-out: Concentration at 90% Inhibition Pc, Phytophthora capsici, growth inhibition vs 2% DMSO control at 48 hours

| Compound | MIC (C. krusei; [3]) [µg/mL] | MIC (C. krusei; [4]) [µg/mL] | IC90 [1, 5] [µg/mL] | IC90 [1, 6] [µg/mL] | IC90 [2, 7] [µg/mL] | IC90 [2, 8] [µg/mL] | MIC (C. krusei; [9]) [µg/mL] | MIC (C. krusei; [10]) [µg/mL] | IC90 [1, 11] [µg/mL] | IC90 [1, 12] [µg/mL] | IC90 [2, 13] [µg/mL] | IC90 [2, 14] [µg/mL] |
| --- | --- | --- | --- | --- | --- | --- | --- | --- | --- | --- | --- | --- |
| COc1ccc(F)cc1[C@H](Cn1c(=O)n(C(C)(C)C(N)=O)c(=O)c2c(C)c(-n3nccn3)sc21)OC1CCOCC1 [Compound I-1] | 0.25 to 1 (≈ 0.426 to 1.7 µM) | 0.25 to 1 (≈ 0.426 to 1.7 µM) | 2 (≈ 3.41 µM) | 2 (≈ 3.41 µM) | 10 (≈ 17 µM) | > 50 |  |  |  |  |  |  |
| COc1ccc(F)cc1[C@H](Cn1c(=O)n(C(C)(C)C(N)=O)c(=O)c2c(C)c(-n3nccn3)sc21)OC(C)C [Compound I-2, (R)-2-(1-(2-(5-fluoro-2-methoxyphenyl)-2-isopropoxyethyl)-5-methyl-2,4-dioxo-6-(2H-1,2,3-triazol-2-yl)-1,4-dihydrothieno[2,3-d]pyrimidin-3(2H)-yl)-2-methylpropanamide] | 0.25 to 1 (≈ 0.459 to 1.84 µM) | 0.25 to 1 (≈ 0.459 to 1.84 µM) | 2 (≈ 3.67 µM) | 2 (≈ 3.67 µM) | > 50 | > 50 |  |  |  |  |  |  |
| CCNC(=O)C(C)(C)n1c(=O)c2c(C)c(-n3nccn3)sc2n(C[C@H](OC(C)C)c2cc(F)ccc2OC)c1=O [Compound I-3, (R)—N-ethyl-2-(1-(2-(5-fluoro-2-methoxyphenyl)-2-isopropoxyethyl)-5-methyl-2,4-dioxo-6-(2H-1,2,3-triazol-2-yl)-1,4-dihydrothieno[2,3-d]pyrimidin-3(2H)-yl)-2-methylpropanamide] |  |  |  |  |  |  | 0.25 to 1 (≈ 0.437 to 1.75 µM) | 0.25 to 1 (≈ 0.437 to 1.75 µM) | 0.4 (≈ 0.698 µM) | 0.4 (≈ 0.698 µM) | > 50 | > 50 |
| COc1ccc(F)cc1[C@H](Cn1c(=O)n(C(C)(C)C(=O)NC(C)C)c(=O)c2c(C)c(-n3nccn3)sc21)OC(C)C [Compound I-4, (R)-2-(1-(2-(5-fluoro-2-methoxyphenyl)-2-isopropoxyethyl)-5-methyl-2,4-dioxo-6-(2H-1,2,3-triazol-2-yl)-1,4-dihydrothieno[2,3-d]pyrimidin-3(2H)-yl)-N-isopropyl-2-methylpropanamide] |  |  |  |  |  |  | 0.25 to 1 (≈ 0.426 to 1.7 µM) | 0.25 to 1 (≈ 0.426 to 1.7 µM) | 0.08 (≈ 0.136 µM) | 0.08 (≈ 0.136 µM) | > 50 | > 50 |
| COc1ccc(F)cc1[C@H](Cn1c(=O)n(C(C)(C)C(=O)N2CCOCC2)c(=O)c2c(C)c(-n3nccn3)sc21)OC(C)C [Compound I-5, (R)-1-(2-(5-fluoro-2-methoxyphenyl)-2-isopropoxyethyl)-5-methyl-3-(2-methyl-1-morpholino-1-oxopropan-2-yl)-6-(2H-1,2,3-triazol-2-yl)thieno[2,3-d]pyrimidine-2,4(1H,3H)-dione] |  |  |  |  |  |  | 1.1 to 2 (≈ 1.79 to 3.25 µM) | 2.01 to 4 (≈ 3.27 to 6.51 µM) | 2 (≈ 3.25 µM) | 2 (≈ 3.25 µM) | > 50 | > 50 |
| COc1ccc(F)cc1[C@H](Cn1c(=O)n(C(C)(C)C(=O)N2CCCCC2)c(=O)c2c(C)c(-n3nccn3)sc21)OC(C)C [Compound I-6, (R)-1-(2-(5-fluoro-2-methoxyphenyl)-2-isopropoxyethyl)-5-methyl-3-(2-methyl-1-oxo-1-(piperidin-1-yl)propan-2-yl)-6-(2H-1,2,3-triazol-2-yl)thieno[2,3-d]pyrimidine-2,4(1H,3H)-dione] |  |  |  |  |  |  | 0.25 to 1 (≈ 0.408 to 1.63 µM) | 0.25 to 1 (≈ 0.408 to 1.63 µM) | 0.08 (≈ 0.131 µM) | 0.08 (≈ 0.131 µM) | > 50 | > 50 |
| COc1ccc(F)cc1[C@H](Cn1c(=O)n(C(C)(C)C(=O)N2CCCC2)c(=O)c2c(C)c(-n3nccn3)sc21)OC(C)C [Compound I-7, (R)-1-(2-(5-fluoro-2-methoxyphenyl)-2-isopropoxyethyl)-5-methyl-3-(2-methyl-1-oxo-1-(pyrrolidin-1-yl)propan-2-yl)-6-(2H-1,2,3-triazol-2-yl)thieno[2,3-d]pyrimidine-2,4(1H,3H)-dione] | 0.25 to 1 (≈ 0.418 to 1.67 µM) | 0.25 to 1 (≈ 0.418 to 1.67 µM) | 0.08 (≈ 0.134 µM) | 0.08 (≈ 0.134 µM) | > 50 | > 50 |  |  |  |  |  |  |
| COc1ccc(F)cc1[C@H](Cn1c(=O)n(C(C)(C)C(N)=O)c(=O)c2c(C)c(-n3nccn3)sc21)OCC(C)C [Compound I-8, (R)-2-(1-(2-(5-fluoro-2-methoxyphenyl)-2-isobutoxyethyl)-5-methyl-2,4-dioxo-6-(2H-1,2,3-triazol-2-yl)-1,4-dihydrothieno[2,3-d]pyrimidin-3(2H)-yl)-2-methylpropanamide] | 1.1 to 2 (≈ 1.97 to 3.58 µM) | 1.01 to 2 (≈ 1.81 to 3.58 µM) | 2 (≈ 3.58 µM) | 2 (≈ 3.58 µM) | > 50 | > 50 |  |  |  |  |  |  |
| CCNC(=O)C(C)(C)n1c(=O)c2c(C)c(-n3nccn3)sc2n(C[C@H](OCC(C)C)c2cc(F)ccc2OC)c1=O [Compound I-9, (R)—N-ethyl-2-(1-(2-(5-fluoro-2-methoxyphenyl)-2-isobutoxyethyl)-5-methyl-2,4-dioxo-6-(2H-1,2,3-triazol-2-yl)-1,4-dihydrothieno[2,3-d]pyrimidin-3(2H)-yl)-2-methylpropanamide] | 0.25 to 1 (≈ 0.426 to 1.7 µM) | 0.25 to 1 (≈ 0.426 to 1.7 µM) | 0.4 (≈ 0.682 µM) | 0.4 (≈ 0.682 µM) | > 50 | > 50 |  |  |  |  |  |  |
| COc1ccc(F)cc1[C@H](Cn1c(=O)n(C(C)(C)C(=O)N2CCCCC2)c(=O)c2c(C)c(-n3nccn3)sc21)OCC(C)C [Compound I-11, (R)-1-(2-(5-fluoro-2-methoxyphenyl)-2-isobutoxyethyl)-5-methyl-3-(2-methyl-1-oxo-1-(piperidin-1-yl)propan-2-yl)-6-(2H-1,2,3-triazol-2-yl)thieno[2,3-d]pyrimidine-2,4(1H,3H)-dione] |  |  |  |  |  |  | 1.1 to 2 (≈ 1.76 to 3.19 µM) | 0.25 to 1 (≈ 0.399 to 1.6 µM) | 0.4 (≈ 0.638 µM) | 0.4 (≈ 0.638 µM) | > 50 | > 50 |
| COc1ccc(F)cc1[C@H](Cn1c(=O)n(C(C)(C)C(=O)N2CCCC2)c(=O)c2c(C)c(-n3nccn3)sc21)OCC(C)C [Compound I-12, (R)-1-(2-(5-fluoro-2-methoxyphenyl)-2-isobutoxyethyl)-5-methyl-3-(2-methyl-1-oxo-1-(pyrrolidin-1-yl)propan-2-yl)-6-(2H-1,2,3-triazol-2-yl)thieno[2,3-d]pyrimidine-2,4(1H,3H)-dione] | 0.25 to 1 (≈ 0.408 to 1.63 µM) | 0.25 to 1 (≈ 0.408 to 1.63 µM) | 0.08 (≈ 0.131 µM) | 0.08 (≈ 0.131 µM) | > 50 | > 50 |  |  |  |  |  |  |
| COc1ccccc1[C@H](Cn1c(=O)n(C(C)(C)C(N)=O)c(=O)c2c(C)c(-n3nccn3)sc21)OC1CCOCC1 [Compound I-14, (R)-2-(1-(2-(2-methoxyphenyl)-2-((tetrahydro-2H-pyran-4-yl)oxy)ethyl)-5-methyl-2,4-dioxo-6-(2H-1,2,3-triazol-2-yl)-1,4-dihydrothieno[2,3-d]pyrimidin-3(2H)-yl)-2-methylpropanamide] | 0.25 to 1 (≈ 0.44 to 1.76 µM) | 1.01 to 2 (≈ 1.78 to 3.52 µM) | 10 (≈ 17.6 µM) | > 50 | > 50 | > 50 |  |  |  |  |  |  |
| CCNC(=O)C(C)(C)n1c(=O)c2c(C)c(-n3nccn3)sc2n(C[C@H](OC2CCOCC2)c2ccccc2OC)c1=O [Compound I-15, (R)—N-ethyl-2-(1-(2-(2-methoxyphenyl)-2-((tetrahydro-2H-pyran-4-yl)oxy)ethyl)-5-methyl-2,4-dioxo-6-(2H-1,2,3-triazol-2-yl)-1,4-dihydro-thieno[2,3-d]pyrimidin-3(2H)-yl)-2-methylpropanamide] | 0.25 to 1 (≈ 0.419 to 1.68 µM) | 0.25 to 1 (≈ 0.419 to 1.68 µM) | 2 (≈ 3.35 µM) | 10 (≈ 16.8 µM) | > 50 | > 50 |  |  |  |  |  |  |
